Tests used:
[1] = Singlet oxygen quantum yield determination with DPBF; assay type: physicochemical; conditions: DCM, irradiation 615/30 nm, relative to methylene blue
Description: To determine whether a minimal one atom sulfur-for-oxygen substitution within fluorophores can lead to fluorescence quenching, thio-caged Nile Red (SNile Red, FIG. 1) was synthesized, in which a carbonyl group was replaced with a thiocarbonyl moiety. Treatment of Nile Red with Lawesson's reagent in refluxing benzene produced the desired SNile Red in a yield of 40%. […] Irradiation of SNile Red with red light (615 nm, 0.4 μW cm-2) led to the regeneration of fluorescent Nile Red in a high yield (FIG. 2A). […] The A556/A652 value, representing the ratio of the absorbance maxima of Nile Red and SNile Red, increased from 0.25 to 30 after desulfuration reaction (FIG. 2B). Upon irradiation with red light, the fluorescence intensity of the desulfurated material at 626 nm increased 280-fold, accompanied by a change in fluorescence from dark to red (FIG. 2C). To evaluate the proper light source for SNile Red photoactivation, SNile Red was irradiated with either 470 nm, 615 nm, or 850 nm light for different times and fluorescence intensities at 626 nm were recorded. […] To further characterize the photoactivated product of SNile Red, ^1H NMR and ESI-MS spectral changes were measured in the process of photoactivation (FIG. 2A). […]
Singlet oxygen quantum yields were calculated according to the literature (Bonacin et al., 2009, Adarsh et al., 2010, and Li et al., 2013). […]

[2] = system: differentiated 3T3-L1 adipocytes; experiment: Photoactivation and photobleaching in living adipocytes (CLSM); assay type: cell-based
Description: Super-resolution imaging based on sequential imaging of a specific region of labeled tissue or cell culture relies on the ability to modulate the fluorescence of fluorophores between dark and bright states (Bates et al., 2007, Sengupta et al., 2014). […] Furthermore, the photoactivation of SNile Red can be achieved using visible light, affording lower phototoxicity and better tissue penetration than use of UV light. […] A 488 nm laser was utilized to activate SNile Red, while a 561 nm laser was used for photobleaching. […] Following irradiation with the 488-nm laser for 80 s, a five-fold increase of fluorescence intensity was detected. Subsequently, photobleaching was performed in the same cells using the 561-nm laser. As shown in FIGS. 13B & 13D, the fluorescence intensity decayed to 10% of its maximum within 360 s continuous scanning. This photoswitching flexibility holds promise for SNile Red utilization in further photoactivatable localization microscopy (PALM) studies. Next, the utility of SNile Red for performing super-resolution imaging of lipid droplets was explored. […] Compared to the conventional widefield fluorescence image (FIG. 13B) and Differential interference contrast (DIC) image (FIGS. 13A-B), the PALM reconstruction outlines a pair of lipid droplets with a resolution beyond the optical diffraction limit (FIGS. 13B &13C). […]

- singlet oxygen quantum yield [1]: 0.36
Structure (SMILES): CCN(CC)c1ccc2nc3c4ccccc4c(=S)cc-3oc2c1 [SNile Red]
- fluorescence intensity after photobleaching, of its maximum ([2]; 561-nm laser, within 360 s continuous scanning): 10%
- increase of fluorescence intensity in cells ([2]; irradiation with 488-nm laser for 80 s): five-fold
